Results as given in patent US20090312377A1, “DERIVATIVES OF BENZO[D]ISOTHIAZOLES AS HISTONES DEACETYLASE INHIBITORS” (UNIVERSIDAD DE GRANADA, priority 2006, published 2009).

Tested on: HDAC (HeLa nuclear extract, rich in HDAC activity)
Assay: HDAC AK-501 colorimetric (Color de Lys) inhibition assay with HeLa nuclear extract
Assay type: biochemical, human
Conditions: Color de Lys substrate 0.2 mM final, 20 minutes at 37° C., reading at 405 nm, from straight line of 5 concentrations
Experimental: The inhibitory activity of the compounds obtained in the previous Examples 1, 2, 3 and 5 was evaluated, for which the HDAC AK-501 colorimetric titration kit for inhibition, supplied by Biomol, was used, following the indicated protocol.
The process of the assay was carried out in two steps. In the first step, the Color de Lys® substrate, containing an acetylated lysine group, was incubated with a sample of HeLa (human cervical cancer cell line) nuclear extract, rich in HDAC activity. In the second step, the previous mixture was treated with the Color de Lys® developer, which caused an increase in the quantifiable color intensity at 405 nm. There is a linear correlation between the absorption and the deacetylation of lysine within instrumental limits. The addition of an HDAC inhibitor gives rise to a lower deacetylation of the Color de Lys® substrate and to a decrease in the intensity at 405 nm.
The operating procedure was the following: • 1. The buffer, diluted (250 nM) TSA (Trichostatin A) and the inhibitor to be assayed were added at the desired concentrations in the suitable wells of the plate (See Table below). • 2. The Hela extract was added, except to the enzyme-free control. • 3. The plate and the Color de Lys® substrate were thermostatted at 37° C. • 4. The reactions were started adding the 0.4 mM substrate (final concentration of the substrate 0.2 mM) in each well and it was stirred. • 5. A reaction time of 20 minutes at 37° C. was allowed. • 6. The Color de Lys® developer, prepared approximately 30 minutes before its use, was added (the developer was used diluted 20 times with an amount of TSA resulting in a final concentration of 1 μM in the assay). It was allowed to react for 15 minutes at 37° C. • 7. The reading was made at 405 nm.
(×5) and (×2) indicate the dilution factors.
The result of the reading using 5 different concentrations taken between 0.1-2.0 mM of each inhibitor allowed obtaining a straight line of concentrations versus enzymatic activity. The concentration necessary to deduce the 50% enzymatic activity (IC50) was calculated from the equation of said line.

Row | SMILES | IC50 [µM]
1 | O=C(CCCCCCN1C(=O)c2ccccc2S1(=O)=O)NO [Compound 2, 7-(1,1-dioxide-3-oxo-2H-benzo[d]isothiazol-2-yl)-N-hydroxyheptanamide] | 0.25
2 | O=C(NO)c1ccc(CN2C(=O)c3ccccc3S2(=O)=O)cc1 [Compound 3, 4-[(1,1-dioxide-3-oxo-2H-benzo[d]isothiazol-2-yl)methyl]-N-hydroxybenzamide] | 1.15
3 | O=C(CCCCCOc1nsc2ccccc12)NO [Compound 5, 6-[(benzo[d]isothiazol-3-yl)oxa]-N-hydroxyhexanamide] | 0.21
4 | O=C(CCCCCN1C(=O)c2ccccc2S1(=O)=O)NO [Compound 1, 6-(1,1-dioxide-3-oxo-2H-benzo[d]isothiazol-2-yl)-N-hydroxyhexanamide] | 1.5
